Results: patent US12065434B2, “Metabolites of GLP1R agonists” (Pfizer Inc., priority 2020, dated 2024)

Tests used:
human GLP-1R [1] = biological target: human GLP-1R (Homo sapiens, UniProt P43220); assay: CHO GLP-1R Clone H6 - Assay 1 (HTRF cAMP agonist assay)
Protocol: (§1) GLP-1R-mediated agonist activity was determined with a cell-based functional assay utilizing an HTRF (Homogeneous Time-Resolved Fluorescence) cAMP detection kit (cAMP HI Range Assay Kit; CisBio cat #62AM6PEJ) that measures cAMP levels in the cell. The method is a competitive immunoassay between native cAMP produced by the cells and exogenous cAMP labeled with the dye d2. The tracer binding is visualized by a mAb anti-cAMP labeled with Cryptate. The specific signal (i.e. energy transfer) is inversely proportional to the concentration of cAMP in either standard or experimental sample.
(§2) The human GLP-1R coding sequence (NCBI Reference Sequence NP_002053.3, including naturally-occurring variant Gly168Ser) was subcloned into pcDNA3 (Invitrogen) and a cell line stably expressing the receptor was isolated (designated Clone H6).
(§3) Cells were removed from cryopreservation, re-suspended in 40 mL of Dulbecco's Phosphate Buffered Saline (DPBS—Lonza Cat #17-512Q) and centrifuged at 800×g for 5 minutes at 22° C. The cell pellet was then re-suspended in 10 mL of growth medium [DMEM/F12 1:1 Mixture with HEPES, L-Gln, 500 mL (DMEM/F12 Lonza Cat #12-719F), 10% heat inactivated fetal bovine serum (Gibco Cat #16140-071), 5 mL of 100× Pen-Strep (Gibco Cat #15140-122), 5 mL of 100× L-Glutamine (Gibco Cat #25030-081) and 500 μg/mL Geneticin (G418) (Invitrogen #10131035)]. A 1 mL sample of the cell suspension in growth media was counted on a Becton Dickinson ViCell to determine cell viability and cell count per mL. The remaining cell suspension was then adjusted with growth media to deliver 2000 viable cells per well using a Matrix Combi Multidrop reagent dispenser, and the cells were dispensed into a white 384 well tissue culture treated assay plate (Corning 3570). The assay plate was then incubated for 48 hours at 37° C. in a humidified environment in 5% carbon dioxide.
(§4) Varying concentrations of each compound to be tested (in DMSO) were diluted in assay buffer (HBSS with Calcium/Magnesium (Lonza/BioWhittaker cat #10-527F)/0.1% BSA (Sigma Aldrich cat #A7409-1L)/20 mM HEPES (Lonza/BioWhittaker cat #17-737E) containing 100 μM 3-isobutyl-1-methylxanthin (IBMX; Sigma cat #15879). The final DMSO concentration is 1%.
(§5) After 48 hours, the growth media was removed from the assay plate wells, and the cells were treated with 20 μL of the serially diluted compound in assay buffer for 30 minutes at 37° C. in a humidified environment in 5% carbon dioxide. Following the 30 minute incubation, 10 μL of labeled d2 cAMP and 10 μL of anti-cAMP antibody (both diluted 1:20 in cell lysis buffer; as described in the manufacturer's assay protocol) were added to each well of the assay plate. The plates were then incubated at room temperature and after 60 minutes, changes in the HTRF signal were read with an Envision 2104 multi-label plate reader using excitation of 330 nm and emissions of 615 and 665 nm. Raw data were converted to nM cAMP by interpolation from a cAMP standard curve (as described in the manufacturer's assay protocol) and the percent effect was determined relative to a saturating concentration of the full agonist GLP-17-36 (1 μM) included on each plate. EC50 determinations were made from agonist dose-response curves analyzed with a curve fitting program using a 4-parameter logistic dose response equation.

human GLP-1R [2] = biological target: human GLP-1R (Homo sapiens, UniProt P43220, G168S); assay: as above; conditions: read-out: Assay 1 Emax (%)
Protocol: as §1, §2, §3, §4, §5

human GLP-1R [3] = biological target: T1, human GLP-1R (Homo sapiens, UniProt P43220, L260F); assay: CHO GLP-1R Clone C6 - Assay 2 (HTRF cAMP agonist assay, low receptor density); assay type: cell-based; conditions: CHO GLP-1R Clone C6 (low receptor density)
T1 construct: expressed in transfected cells
Protocol: GLP-1R-mediated agonist activity was determined with a cell-based functional assay utilizing an HTRF (Homogeneous Time-Resolved Fluorescence) cAMP detection kit (cAMP HI Range Assay Kit; Cis Bio cat #62AM6PEJ) that measures cAMP levels in the cell. The method is a competitive immunoassay between native cAMP produced by the cells and exogenous cAMP labeled with the dye d2. The tracer binding is visualized by a mAb anti-cAMP labeled with Cryptate. The specific signal (i.e. energy transfer) is inversely proportional to the concentration of cAMP in either a standard or an experimental sample.
The human GLP-1R coding sequence (NCBI Reference Sequence NP_002053.3, including naturally-occurring variant Leu260Phe) was subcloned into pcDNA5-FRT-TO and a clonal CHO cell line stably expressing a low receptor density was isolated using the Flp-In™ T-Rex™ System, as described by the manufacturer (ThermoFisher).
Cells were removed from cryopreservation, re-suspended in 40 mL of Dulbecco's Phosphate Buffered Saline (DPBS—Lonza Cat #17-512Q) and centrifuged at 800×g for 5 minutes at 22° C. The DPBS was aspirated, and the cell pellet was re-suspended in 10 mL of complete growth medium (DMEM:F12 1:1 Mixture with HEPES, L-Gln, 500 mL (DMEM/F12 Lonza Cat #12-719F), 10% heat inactivated fetal bovine serum (Gibco Cat #16140-071), 5 mL of 100× Pen-Strep (Gibco Cat #15140-122), 5 mL of 100× L-Glutamine (Gibco Cat #25030-081), 700 μg/mL Hygromycin (Invitrogen Cat #10687010) and 15 μg/mL Blasticidin (Gibco Cat #R21001). A 1 mL sample of the cell suspension in growth media was counted on a Becton Dickinson ViCell to determine cell viability and cell count per mL. The remaining cell suspension was then adjusted with growth media to deliver 1600 viable cells per well using a Matrix Combi Multidrop reagent dispenser, and the cells were dispensed into a white 384 well tissue culture treated assay plate (Corning 3570). The assay plate was then incubated for 48 hours at 37° C. in a humidified environment (95% O2, 5% CO2)
Varying concentrations of each compound to be tested (in DMSO) were diluted in assay buffer [HBSS with Calcium/Magnesium (Lonza/BioWhittaker cat #10-527F)/0.1% BSA (Sigma Aldrich cat #A7409-1L)/20 mM HEPES (Lonza/BioWhittaker cat #17-737E)] containing 100 μM 3-isobutyl-1-methylxanthin (IBMX; Sigma cat #15879). The final DMSO concentration in the compound/assay buffer mixture is 1%.
After 48 hours, the growth media was removed from the assay plate wells, and the cells were treated with 20 μL of the serially diluted compound in assay buffer for 30 minutes at 37° C. in a humidified environment (95% O2, 5% CO2). Following the 30 minute incubation, 10 μL of labeled d2 cAMP and 10 μL of anti-cAMP antibody (both diluted 1:20 in cell lysis buffer; as described in the manufacturer's assay protocol) were added to each well of the assay plate. The plates were then incubated at room temperature and after 60 minutes, changes in the HTRF signal were read with an Envision 2104 multi-label plate reader using excitation of 330 nm and emissions of 615 and 665 nm. Raw data were converted to nM cAMP by interpolation from a cAMP standard curve (as described in the manufacturer's assay protocol) and the percent effect was determined relative to a saturating concentration of the full agonist GLP-1 (1 μM) included on each plate. EC50 determinations were made from agonist dose response curves analyzed with a curve fitting program using a 4-parameter logistic dose response equation.

[4] = Metabolite profiling of pooled human plasma after repeat oral dosing of Compound 1 (HPLC/UV/MS)
Protocol: Plasma samples from nine human subjects following oral administration of 120 mg BID for 28 days in a clinical study were examined for metabolites.
Individual subject's plasma (from nine human subjects with 120 mg BID dose Day 28) were pooled in proportion to the time period represented by each to yield a pool for profiling that was representative of the AUC (0-12 hr) according to the method of Hamilton et al. [Hamilton R A, Garnett W R, Kline B J. Determination of a mean valproic acid serum level by assay of a single pooled sample. […] Pooled plasma time points were first prepared by aliquoting equal amounts (1.0 mL) of plasma from each subject prior to making a single Hamilton pool. Blank plasma pools were made by taking equal aliquots of predose samples. To a 2 mL aliquot of each pooled plasma sample was added 6 mL of acetonitrile and then mixed. Protein precipitated samples were centrifuged for 5 minutes at 2000×g and the supernatants were transferred to other clean 15 mL centrifuge tubes. Samples were dried using an evaporative centrifuge set to 37° C. Samples were reconstituted using 0.2 mL of 5:95 acetonitrile:water and analyzed by HPLC/UV/MS.
Reconstituted samples were analyzed by positive ion HPLC/UV/MS using a Thermo Orbitrap Elite mass spectrometer operating in positive ion electrospray mode. Xcalibur software version 3.0.63 was used to control the HPLC/UV/MS system. Full scan data were collected at 15,000 resolution. Data dependent product ion scans of the two most intense ions found in the full scan were obtained at 15,000 resolution. The dynamic exclusion function was used with a 10 second exclusion duration after 3 successive product ion scans with an early exclusion if the precursor ion fell below a signal to noise ratio of 20. The HPLC system consisted of an Accela quaternary solvent delivery pump, an Accela autoinjector, an Accela PDA Plus photodiode array detector (Thermo Electron Corporation). Chromatography was performed on a Phenomenex Kinetex column (2.1 mm×100 mm, 2.6 μm) at 45° C. using a HotSleeve column heater (Analytical Sales and Services). The mobile phase was composed of 0.1% formic acid in water (solvent A) and acetonitrile (solvent B). The solvent delivery gradient program was as follows:

T1 sequence (P43220 24-463 L260F): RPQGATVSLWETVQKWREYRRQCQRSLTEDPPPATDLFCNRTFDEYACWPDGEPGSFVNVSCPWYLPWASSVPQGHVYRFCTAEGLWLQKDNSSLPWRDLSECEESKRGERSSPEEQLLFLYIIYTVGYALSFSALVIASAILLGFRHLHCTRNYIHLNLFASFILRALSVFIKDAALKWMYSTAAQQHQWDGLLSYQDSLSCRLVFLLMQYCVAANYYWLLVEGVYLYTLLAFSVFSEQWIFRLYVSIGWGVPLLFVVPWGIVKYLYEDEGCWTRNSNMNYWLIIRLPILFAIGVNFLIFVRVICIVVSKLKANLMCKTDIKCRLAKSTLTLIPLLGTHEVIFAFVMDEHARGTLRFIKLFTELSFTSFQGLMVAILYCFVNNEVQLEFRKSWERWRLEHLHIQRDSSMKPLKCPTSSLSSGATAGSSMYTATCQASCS
Chain of human GLP-1R (Homo sapiens, UniProt P43220) (P43220 24-463 G168S): as the sequence (P43220 24-463 L260F) above, with G145S, F237L counted along it
Chain of human GLP-1R (Homo sapiens, UniProt P43220, G168S) (P43220 24-463 G168S): as the sequence (P43220 24-463 L260F) above, with G145S, F237L counted along it

EC50 (human GLP-1R [1]): > 20 µM | Emax (human GLP-1R [2]): 2% | Emax (human GLP-1R [3]; arithmetic mean, relative to 1 μM GLP-1): 0% | EC50 (human GLP-1R [3]; geometric mean): > 20 µM | observed as major or minor metabolite in human plasma ([4]; Compound 1 120 mg BID, Day 28): major circulating metabolite | Plasma Extracts ([4]; Compound 1 120 mg oral BID, Day 28, HPLC/UV/MS): +++
Compound: O=C(O)c1ccc2nc(CN3CCC(c4cccc(=O)[nH]4)CC3)n(C[C@@H]3CCO3)c2c1 [Compound M2, (S)-2-((4-(6-hydroxypyridin-2-yl)piperidin-1-yl)methyl)-1-(oxetan-2-ylmethyl)-1H-benzo[d]imidazole-6-carboxylic acid]
